PMC7449170, “ATI-2173, a Novel Liver-Targeted Non-Chain-Terminating Nucleotide for Hepatitis B Virus Cure Regimens” (Antimicrobial Agents and Chemotherapy, 2020)
Read-outs that look alike come from different tables or passages of the source.

What was measured:
HBV wild type (U95551) = assay: Cross-resistance in transfected HepG2 cells, wild type; type: cell-based, Hepatitis B virus
HBV coreT33N = assay: microbe, parasite or virus in culture; type: cell-based, Hepatitis B virus; details: HepG2 cells, mutation coreT33N; read-out: EC50
HBV [1] = assay: HBV combination studies with ATI-2173 in primary human hepatocytes (MacSynergy); type: cell-based, Hepatitis B virus; details: compound combined with ATI-2173, primary human hepatocytes; for Combination index: MacSynergy
HBV [2] = test system: HBV; set-up: method as in PMID 8834884, PMID 7786007, PMID 20516559; details: cell-based in vitro systems; read-out: Anti-HBV EC50; cited from earlier work
HBV genotype D = assay: Anti-HBV activity in HepG2.2.15 cells (extracellular HBV DNA by qPCR); type: cell-based; details: Hepatitis B virus
Experimental: ATI-2173 was obtained from WuXi SynTheAll. Entecavir (positive control) was obtained from Shanghai Titan Scientific Co., Ltd. HepG2.2.15 cells (derived from human hepatoblastoma cell-like HepG2) contain four 5′ to 3′ tandem copies of the HBV genotype D and were provided by WuXi. HepG2.2.15 cells were cultured in Dulbecco’s modified Eagle medium (DMEM)/F12 (Invitrogen, 11330032) supplemented with 2% fetal bovine serum (FBS) (HyClone, SV30087.03), 1% L-glutamine, 1% minimum essential medium (MEM) nonessential amino acid solution (NEAA), and 1% penicillin-streptomycin solution. QIAamp 96 DNA blood kit was purchased from Qiagen (51162). […] Culture medium containing ATI-2173 or entecavir (serially diluted) was added to cells on day 2 and refreshed on day 5. ATI-2173 dilutions were: 0.0006, 0.0024, 0.0098, 0.0391, 0.1563, 0.6250, 2.5000, and 10.0000 μM. On day 8, cell culture supernatants were collected and DNA was extracted by the QIAamp 96 DNA blood kit. qPCR was run at 95°C for 10 min, then cycled at 95°C for 15 s, 60°C for 1 min, for a total of 40 cycles. HBV DNA content in the samples was calculated according to the standard curve and CT (cycle threshold of qPCR) values of a sample. Data were normalized for maximum and minimum copy numbers.

[3] = human, in vivo; cited from earlier work
[4] = in vivo, po; cited from earlier work
in vitro = details: human
Experimental: HK-2 human kidney cells were obtained from ATCC (Manassas, VA) and cultured in Gibco Keratinocyte serum-free medium (Thermo Fisher Scientific, Waltham, MA) supplemented with 10% FBS (Peak Serum, Wellington, CO). Human skeletal muscle cells were obtained from Lonza (Walkersville, MD) and cultured in SkGM-2 skeletal muscle cell growth medium-2 (Lonza). Both HK-2 and skeletal muscle cells were cultured humidified at 37°C and 5% CO2. Cryopreserved human primary hepatocytes and medium were received from Lonza. Cryopreserved iCell cardiomyocytes and cardiomyocyte medium were purchased from Stem Cell Technologies (Vancouver, BC, Canada). Cryopreserved human bone marrow mononuclear cells were purchased from Lonza with HemaTox Myeloid medium purchased from [sequence] […] All cryopreserved cells (human primary hepatocytes, iCell cardiomyocytes, and human bone marrow mononuclear cells) were stored in vapor phase liquid nitrogen until the day of plating. […] Serial dilutions of compounds in DMSO were as follows: 100, 10, 1, 0.1, 0.01, 0.001, 0.0001, and 0.00001 μM (final concentration of DMSO in medium was 0.5%).
HK-2 and skeletal muscle cells were seeded into 96-well plates at 5,000 cells/well and incubated overnight at 37°C and 5% CO2. Human hepatocytes were thawed, diluted in hepatocyte plating medium (Lonza) and seeded into a 96-well, collagen-coated plates at 2.5 × 10^4 cells/well. Hepatocytes were incubated for 6 h at 37°C in 5% CO2, then the medium was aspirated and replaced with hepatocyte culture medium at 50 μl/well, and finally incubated overnight. The iCell cardiomyocytes were thawed, suspended in iCell thawing/plating medium, and plated at 4 × 10^4 cells/well in a gelatin-coated 96-well plate. iCells were incubated for 2 days at 37°C in 7% CO2. […]
Following incubation, cells were dosed and incubated for 72 h at 37°C and 5% CO2. Following incubation, the endpoint cell viability CellTiter-Glo 2.0 assay (Promega, San Luis Obispo, CA) was performed and luminescence data collected on a Synergy 4 plate reader (Biotek, Winooski, VT). […]

HBV DNA = test system: HBV DNA; set-up: method as in PMID 15239097; details: patients, for 6 months following treatment; cited from earlier work
[5] = Cell viability (CC50) in HepG2.2.15 cells; details: human
[6] = test system: clevudine-resistant mutants; details: mutants from viral break-through patients, predominantly M204I; cited from earlier work
HBV rtS202G+M204I+M250V = assay: microbe, parasite or virus in culture; type: cell-based; details: Hepatitis B virus, HepG2
HBV rtS202G+M204I = assay: microbe, parasite or virus in culture; type: cell-based; details: Hepatitis B virus, HepG2
[7] = test system: HBV genotypes A, B, C, D, E, F, G, and H; assay: microbe, parasite or virus in culture; type: cell-based; details: Hepatitis B virus, HepG2, read-out: IC50s, inhibition of HBV DNA across genotypes
HBV coreP25A = assay: microbe, parasite or virus in culture; type: cell-based, Hepatitis B virus; details: HepG2 cells, mutation coreP25A; read-out: EC50
HBV rtN236T = assay: microbe, parasite or virus in culture; type: cell-based; details: Hepatitis B virus, HepG2
HBV rtL180M+M204V = assay: microbe, parasite or virus in culture; type: cell-based; details: Hepatitis B virus, HepG2
HBV rtM204V = assay: microbe, parasite or virus in culture; type: cell-based; details: Hepatitis B virus, HepG2
HBV rtA181V = assay: microbe, parasite or virus in culture; type: cell-based; details: Hepatitis B virus, HepG2
HBV rtM204I = assay: microbe, parasite or virus in culture; type: cell-based; details: Hepatitis B virus, HepG2
HBV rtV173L+M204I = assay: microbe, parasite or virus in culture; type: cell-based; details: Hepatitis B virus, HepG2

## COc1ccccc1/C(Br)=C(\NC(=O)c1ccc([N+](=O)[O-])cc1)C(=O)N1CCCCC1 [AT-130]
HBV wild type (U95551)
  EC50: 246 nM
HBV coreT33N
  EC50: > 10 µM

## Nc1ncnc2c1ncn2CCOCP(=O)(O)O [Adefovir]
HBV [1]
  Combination effect: Minor synergism (25 to 50 is considered minor synergism)
  Combination index: 32.85

## Cc1cn([C@H]2O[C@@H](CO)[C@H](O)[C@H]2F)c(=O)[nH]c1=O [Clevudine, 1-(2-fluoro-5-methyl-β,L-arabinofuranosyl) uracil]
HBV [2]
  EC50: ~100 nM
HBV genotype D; HepG2.2.15, read-out: EC50, extracellular HBV DNA
  EC50: 100 nM
[3]
  Myopathy on long-term exposure: reversible proximal myopathy symptoms emerged
[4]
  Plasma concentrations at effective doses: up to 1 μM
In vitro
  CC50 at 72 h: > 100 µM
HBV DNA
  Sustained viral suppression, reduction from baseline: ~2 log10
[5]; HepG2.2.15 cells
  CC50: > 10 µM

## C=C1[C@H](CO)[C@@H](O)C[C@@H]1n1cnc2c(=O)[nH]c(N)nc21 [Entecavir]
HBV genotype D; HepG2.2.15 cells, control compound, read-out: EC50, extracellular HBV DNA
  EC50: 0.6 nM
[6]
  Activity against clevudine-resistant mutants: not
HBV wild type (U95551); Hepatitis B virus
  EC50: 3 nM
HBV [1]
  Combination effect: Minor synergism (25 to 50 is considered minor synergism)
  Combination index: 38.62
HBV rtS202G+M204I+M250V
  EC50: 21 µM
HBV rtS202G+M204I
  EC50: 9.96 µM
[5]
  CC50: > 0.05 µM
[7]
  IC50: 0.5 to 2.2 nM

## CCOC(=O)C1=C(CN2CCOCC2)NC(c2nccs2)=NC1c1ccc(F)cc1Br (stereo not shown) [GLS4]
HBV coreP25A
  EC50: 295 nM
HBV wild type (U95551)
  EC50: 15 nM
HBV [1]
  Combination effect: Additive (A combination index of <25 is considered additive)
  Combination index: 7.59
HBV coreT33N
  EC50: 3.08 µM

## Nc1ccn([C@@H]2CS[C@H](CO)O2)c(=O)n1 [Lamivudine, reference compound]
HBV rtN236T
  EC50: 130 nM
HBV rtL180M+M204V
  EC50: > 10 µM
HBV wild type (U95551); Hepatitis B virus
  EC50: 96 nM
HBV [1]
  Combination effect: Additive (A combination index of <25 is considered additive)
  Combination index: −5.86
HBV rtM204V
  EC50: 3.51 µM
HBV rtA181V
  EC50: 210 nM
HBV rtM204I
  EC50: > 10 µM
HBV rtV173L+M204I
  EC50: > 10 µM

## C[C@H](Cn1cnc2c(N)ncnc21)OCP(=O)(O)O [Tenofovir]
[6]
  Activity against clevudine-resistant mutants: active
HBV [1]
  Combination effect: Additive (A combination index of <25 is considered additive)
  Combination index: 8.56
